From patent US9682965B2, “Fumagillol heterocyclic compounds and methods of making and using same” (Zafgen, Inc., priority 2015, dated 2017)
Where a name gives a salt, the structure may show the parent alone.

Key:
[1] = system: Diet Induced Obese (DIO) C57BL/6 mice; assay: 10 day DIO mouse model (body weight, food intake, hematology, blood chemistry); type: in vivo; conditions: 240 h; DIO mouse, 0.3 mpk sc, once a day for 10 days; read-out: DIO Mouse 10-day weight loss vs vehicle
Method in brief: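 DIO C57BL/6 mice on 60% kcal fat diet received compounds subcutaneously once daily for 10 days at 1.0, 0.5, 0.3, 0.1 or 0.03 mpk, in 10% DMSO in water, after 3-day vehicle acclimation. Body weight and food intake were recorded daily. Hematology and blood chemistry were taken on Day 11, 24 h post-final dose.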

recombinant human MetAP2 = recombinant human MetAP2 (Homo sapiens (Human), UniProt P50579); assay: recombinant human MetAP2 enzyme inhibition assay; type: biochemical; conditions: recombinant human MetAP2, MAS peptide substrate, 25 minutes at 25° C
Sequence of recombinant human MetAP2 (P50579 whole entry): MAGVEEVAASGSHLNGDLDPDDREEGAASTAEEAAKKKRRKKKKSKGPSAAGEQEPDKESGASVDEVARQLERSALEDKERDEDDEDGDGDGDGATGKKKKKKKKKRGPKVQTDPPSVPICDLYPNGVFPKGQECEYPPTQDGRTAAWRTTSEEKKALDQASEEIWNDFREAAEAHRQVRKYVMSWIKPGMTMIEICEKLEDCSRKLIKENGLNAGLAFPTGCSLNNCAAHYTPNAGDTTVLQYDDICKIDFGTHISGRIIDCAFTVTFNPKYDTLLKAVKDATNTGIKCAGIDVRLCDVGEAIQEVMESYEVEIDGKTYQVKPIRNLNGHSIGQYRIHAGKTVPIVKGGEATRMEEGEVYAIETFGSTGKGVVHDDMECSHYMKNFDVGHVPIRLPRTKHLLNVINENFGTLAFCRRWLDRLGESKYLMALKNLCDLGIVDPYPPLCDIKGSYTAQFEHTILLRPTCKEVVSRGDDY
Description: Compounds are tested for their capacity to inhibit recombinant human MetAP2 activity using the following assay.
Flag tagged Human recombinant MetAP2 expressed and isolated for use as the enzyme source. 10 mM stock solutions of compounds were prepared in 100% DMSO and further diluted in 100% DMSO required concentration to 1 mM stocks. The stock compound solutions and DMSO vehicle controls were diluted to target final compound concentrations using assay buffer to a final concentration of 50 mM HEPES containing 100 mM NaCl, pH adjusted to 7.5. The MAS peptide was formulated to a 7.5 mM stock in distilled water and prior to use further diluted 1:4. […] 40 μl of enzyme was mixed with 100 μl of MnCl2 then further diluted in assay buffer to a final concentration of 16 μg/ml. To test for compound effect on MetAP2 enzyme activity, 5 μl of test compound, 10 μl of MAS substrate/amino acid oxidase mixture, 10 μl of MetAP2 was added to test wells in a 384 well black plate with blank wells containing no enzyme, replaced with 10 μl of assay buffer. All compounds were tested in duplicate on two occasions on the same day.
The plate was sealed with a TopSeal A cover and mixed briefly on an orbital mixer at 900 rpm. The plate was incubated for a further 25 minutes at 25° C. A 5× stock of Amplex buffer was prepared (0.25M sodium phosphate, pH 7.4) and stored at 4° C. […] 25 μl detection reagent was added to each well of the test plate, which was re-sealed and mixed briefly on an orbital shaker.

[2] = system: Male Sprague Dawley rats on high fat diet; assay: 11 day rat DIO model (body weight, food intake, hematology, blood chemistries); type: in vivo; conditions: 264 h, DIO rat, once a day for 11 days, read-out: DIO Rat 11-day weight loss vs vehicle; for inhibition in vivo at 0.3 mg/kg: 0.3 mpk sc
Source text: The objective of this study design is to investigate the efficacy of disclosed compounds in an 11 day rat DIO model used to screen compounds for pharmacologic efficacy on endpoints related to obesity and metabolism. Effects on body weight, food intake, hematology and blood chemistries were the primary readouts of this study design. […] Rats were fed Research Diets D12451 (45% High Fat) and provided water ad libitum. Rats were received and housed in the facility for at least two or three weeks prior to start of test article administration. On Day −4 or −3, rats were randomized into study groups based on body weight and body weights were continued to be recorded daily for the duration of the study. Daily food intake was assessed starting on Study Day −2 by weighing the hopper including the food to avoid loss of food in transfer.
Compounds were formulated into a 100% DMSO stock (at 9 mg/mL) prior to the start, and further diluted into the target working concentration using the vehicle of 10% DMSO in water. Prior to test article administration, starting on Day −3 a dosing acclimation occured with all animals receiving a subcutaneous injection of vehicle (10% DMSO) only for 3 days. Starting on Day 1, test compounds or vehicle were administered based on individual body weight, subcutaneously, once a day for 11 days. All animals were sacrificed on Day 11, approximately 2 hours following the final dosing on Day 11. After sacrifice, whole blood was collected and analyzed for hematology and blood chemistry parameters.
Compounds were tested vs. vehicle at various doses (1.0, 0.5, 0.3, 0.1, 0.03 mpk sc (mg per kg animal weight delivered subcutaneously), and the results are shown in Table 2 below.

`CO[C@@H]1[C@H](OC(=O)N2CC(CCN3CC4(COC4)C3)C2)CC[C@]2(CO2)[C@H]1[C@@]1(C)O[C@@H]1CC=C(C)C` [Example 16, (3R,4S,5S,6R)-5-methoxy-4-((2R,3R)-2-methyl-3-(3-methylbut-2-en-1-yl)oxiran-2-yl)-1-oxaspiro[2.5]octan-6-yl 3-(2-(2-oxa-6-azaspiro[3.3]heptan-6-yl)ethyl)azetidine-1-carboxylate] gave an inhibition in vivo at 0.3 mg/kg [1] of 3.1% and an IC50 (recombinant human MetAP2) of under 50 nM.
Work on `CCN(CC)CCC1(O)CN(C(=O)O[C@@H]2CC[C@]3(CO3)[C@@H]([C@@]3(C)O[C@@H]3CC=C(C)C)[C@@H]2OC)C1` [Example 49, (3R,4S,5S,6R)-5-methoxy-4-((2R,3R)-2-methyl-3-(3-methylbut-2-enyl)oxiran-2-yl)-1-oxaspiro[2.5]octan-6-yl 3-(2-(diethylamino)ethyl)-3-hydroxyazetidine-1-carboxylate] yielded an inhibition in vivo at 0.3 mg/kg [1] of 4.1% and an IC50 (recombinant human MetAP2) of under 50 nM.
In the case of `CCN(CC)CCNC(=O)CC1CN(C(=O)O[C@@H]2CC[C@]3(CO3)[C@@H]([C@@]3(C)O[C@@H]3CC=C(C)C)[C@@H]2OC)C1` [Example 66, (3R,4S,5S,6R)-5-methoxy-4-((2R,3R)-2-methyl-3-(3-methylbut-2-enyl)oxiran-2-yl)-1-oxaspiro[2.5]octan-6-yl 3-(2-(2-(diethylamino)ethylamino)-2-oxoethyl)azetidine-1-carboxylate], the inhibition in vivo at 0.3 mg/kg [1] is reported as 7.6% and the IC50 (recombinant human MetAP2) is reported as under 50 nM.
Work on `CCN(CC)CCNC(=O)OC1CN(C(=O)O[C@@H]2CC[C@]3(CO3)[C@@H]([C@@]3(C)O[C@@H]3CC=C(C)C)[C@@H]2OC)C1` [Example 73, (3R,4S,5S,6R)-5-methoxy-4-((2R,3R)-2-methyl-3-(3-methylbut-2-en-1-yl)oxiran-2-yl)-1-oxaspiro[2.5]octan-6-yl 3-(((2-(diethylamino)ethyl)carbamoyl)oxy)azetidine-1-carboxylate] yielded an inhibition in vivo at 0.3 mg/kg [1] of 7.4% and an IC50 (recombinant human MetAP2) of under 50 nM.
In the case of `CNC(=O)NC1CN(C(=O)O[C@@H]2CC[C@]3(CO3)[C@@H]([C@@]3(C)O[C@@H]3CC=C(C)C)[C@@H]2OC)C1` [Example 84, (3R,4S,5S,6R)-5-methoxy-4-((2R,3R)-2-methyl-3-(3-methylbut-2-enyl)oxiran-2-yl)-1-oxaspiro[2.5]octan-6-yl 3-(3-methylureido)azetidine-1-carboxylate], the inhibition in vivo at 0.3 mg/kg [1] is reported as 0.8% and the IC50 (recombinant human MetAP2) is reported as under 50 nM.
For `CO[C@@H]1[C@H](OC(=O)N2CC(CCN3CCCCC3)C2)CC[C@]2(CO2)[C@H]1[C@@]1(C)O[C@@H]1CC=C(C)C` [Example 4, (3R,4S,5S,6R)-5-methoxy-4-((2R,3R)-2-methyl-3-(3-methylbut-2-enyl)oxiran-2-yl)-1-oxaspiro[2.5]octan-6-yl 3-(2-(piperidin-1-yl)ethyl)azetidine-1-carboxylate formate], the inhibition in vivo at 0.3 mg/kg [1] was 4.1% and the IC50 (recombinant human MetAP2) was under 50 nM.
`CO[C@@H]1[C@H](OC(=O)N2CC(OC(N)=O)C2)CC[C@]2(CO2)[C@H]1[C@@]1(C)O[C@@H]1CC=C(C)C` [Example 72, (3R,4S,5S,6R)-5-methoxy-4-((2R,3R)-2-methyl-3-(3-methylbut-2-enyl)oxiran-2-yl)-1-oxaspiro[2.5]octan-6-yl 3-(carbamoyloxy)azetidine-1-carboxylate] was tested, and the inhibition in vivo at 0.3 mg/kg [1] was 0.8% and the IC50 (recombinant human MetAP2) was under 50 nM.
`CCN(CC)CCCC1(O)CN(C(=O)O[C@@H]2CC[C@]3(CO3)[C@@H]([C@@]3(C)O[C@@H]3CC=C(C)C)[C@@H]2OC)C1` [Example 61, (3R,4S,5S,6R)-5-methoxy-4-((2R,3R)-2-methyl-3-(3-methylbut-2-enyl)oxiran-2-yl)-1-oxaspiro[2.5]octan-6-yl 3-(3-(diethylamino)propyl)-3-hydroxyazetidine-1-carboxylate] was tested, and the IC50 (recombinant human MetAP2) was under 50 nM.
`CO[C@@H]1[C@H](OC(=O)N2CC(CC(=O)N3CCOCC3)C2)CC[C@]2(CO2)[C@H]1[C@@]1(C)O[C@@H]1CC=C(C)C` [Example 62, (3R,4S,5S,6R)-5-methoxy-4-((2R,3R)-2-methyl-3-(3-methylbut-2-enyl)oxiran-2-yl)-1-oxaspiro[2.5]octan-6-yl 3-(2-morpholino-2-oxoethyl)azetidine-1-carboxylate formate] was tested, and the inhibition in vivo at 0.3 mg/kg [1] was 7.4% and the IC50 (recombinant human MetAP2) was under 50 nM.
`CCN(CC)CCC1CCN(C(=O)O[C@@H]2CC[C@]3(CO3)[C@@H]([C@@]3(C)O[C@@H]3CC=C(C)C)[C@@H]2OC)C1` (stereo in doubt) [Example 56, (S)-(3R,4S,5S,6R)-5-methoxy-4-((2R,3R)-2-methyl-3-(3-methylbut-2-en-1-yl)oxiran-2-yl)-1-oxaspiro[2.5]octan-6-yl 3-(2-(diethylamino)ethyl)pyrrolidine-1-carboxylate] showed an inhibition in vivo at 0.3 mg/kg [1] of 7.2% and an IC50 (recombinant human MetAP2) of under 50 nM.
With `CNC(=O)CC1CN(C(=O)O[C@@H]2CC[C@]3(CO3)[C@@H]([C@@]3(C)O[C@@H]3CC=C(C)C)[C@@H]2OC)C1` [Example 63, (3R,4S,5S,6R)-5-methoxy-4-((2R,3R)-2-methyl-3-(3-methylbut-2-enyl)oxiran-2-yl)-1-oxaspiro[2.5]octan-6-yl 3-(2-(methylamino)-2-oxoethyl)azetidine-1-carboxylate] the inhibition in vivo at 0.3 mg/kg [1] was 0.5% and the IC50 (recombinant human MetAP2) was under 50 nM.
Compound `CO[C@@H]1[C@H](OC(=O)N2CC(CC(N)=O)C2)CC[C@]2(CO2)[C@H]1[C@@]1(C)O[C@@H]1CC=C(C)C` [Example 65, (3R,4S,5S,6R)-5-methoxy-4-((2R,3R)-2-methyl-3-(3-methylbut-2-enyl)oxiran-2-yl)-1-oxaspiro[2.5]octan-6-yl 3-(2-amino-2-oxoethyl)azetidine-1-carboxylate] has an inhibition in vivo at 0.3 mg/kg [1] of 2.6% and an IC50 (recombinant human MetAP2) of under 50 nM.
For `CO[C@@H]1[C@H](OC(=O)N2CC(CCN3CCN(CC(F)F)CC3)C2)CC[C@]2(CO2)[C@H]1[C@@]1(C)O[C@@H]1CC=C(C)C` [Example 34, (3R,4S,5S,6R)-5-methoxy-4-((2R,3R)-2-methyl-3-(3-methylbut-2-en-1-yl)oxiran-2-yl)-1-oxaspiro[2.5]octan-6-yl 3-(2-(4-(2,2-difluoroethyl)piperazin-1-yl)ethyl)azetidine-1-carboxylate], the inhibition in vivo at 0.3 mg/kg [1] was 9.3% and the inhibition in vivo at 0.3 mg/kg [2] was 5.1%.
In the case of `CCN(CC)C[C@@H]1CCN1C(=O)O[C@@H]1CC[C@]2(CO2)[C@@H]([C@@]2(C)O[C@@H]2CC=C(C)C)[C@@H]1OC` [Example 40, (S)-((3R,4S,5S,6R)-5-methoxy-4-((2R,3R)-2-methyl-3-(3-methylbut-2-enyl)oxiran-2-yl)-1-oxaspiro[2.5]octan-6-yl) 2-((diethylamino)methyl)azetidine-1-carboxylate formate], the inhibition in vivo at 0.3 mg/kg [1] is reported as 6%, the inhibition in vivo at 0.3 mg/kg [2] is reported as 0.08% and the inhibition in vivo at 1 mg/kg ([2]; 1.0 mpk sc) is reported as 4.73%.
`CO[C@@H]1[C@H](OC(=O)N2CC[C@@H](CN3CCOCC3)C2)CC[C@]2(CO2)[C@H]1[C@@]1(C)O[C@@H]1CC=C(C)C` [Example 37, (S)-(3R,4S,5S,6R)-5-methoxy-4-((2R,3R)-2-methyl-3-(3-methylbut-2-en-1-yl)oxiran-2-yl)-1-oxaspiro[2.5]octan-6-yl 3-(morpholinomethyl)pyrrolidine-1-carboxylate formate] was tested, and the inhibition in vivo at 0.3 mg/kg [1] was 11.1% and the inhibition in vivo at 0.3 mg/kg [2] was 5.3%.
Compound `CO[C@@H]1[C@H](OC(=O)N2CC(CCC3CCN(CC(F)F)CC3)C2)CC[C@]2(CO2)[C@H]1[C@@]1(C)O[C@@H]1CC=C(C)C` [Example 91, (3R,4S,5S,6R)-5-methoxy-4-((2R,3R)-2-methyl-3-(3-methylbut-2-enyl)oxiran-2-yl)-1-oxaspiro[2.5]octan-6-yl 3-(2-(1-(2,2-difluoroethyl)piperidin-4-yl)ethyl)azetidine-1-carboxylate formate] has an inhibition in vivo at 0.3 mg/kg [1] of 29.7% and an inhibition in vivo at 0.3 mg/kg [2] of 17.2%.
